Literature values, collected in US20190209502A1, “COMBINATION GEL FOR SEXUALLY TRANSMITTED INFECTIONS” (EVOFEM, INC., priority 2016, published 2019).

System: HIV
Conditions: compared with D or racemic lactic acid

SMILES: C[C@H](O)C(=O)O [L form of lactic acid, L-(+)-lactic acid]
- potency in inactivating HIV: more potent in inactivating HIV than D or racemic lactic acid
